Consider one molecule from PMC10407194 (Current Research in Insect Science, 2023).

The assay addresses T1, TcTRPA1 (Tribolium castaneum, UniProt A0A139WJZ5).
T1 sequence (A0A139WJZ5 1-1242): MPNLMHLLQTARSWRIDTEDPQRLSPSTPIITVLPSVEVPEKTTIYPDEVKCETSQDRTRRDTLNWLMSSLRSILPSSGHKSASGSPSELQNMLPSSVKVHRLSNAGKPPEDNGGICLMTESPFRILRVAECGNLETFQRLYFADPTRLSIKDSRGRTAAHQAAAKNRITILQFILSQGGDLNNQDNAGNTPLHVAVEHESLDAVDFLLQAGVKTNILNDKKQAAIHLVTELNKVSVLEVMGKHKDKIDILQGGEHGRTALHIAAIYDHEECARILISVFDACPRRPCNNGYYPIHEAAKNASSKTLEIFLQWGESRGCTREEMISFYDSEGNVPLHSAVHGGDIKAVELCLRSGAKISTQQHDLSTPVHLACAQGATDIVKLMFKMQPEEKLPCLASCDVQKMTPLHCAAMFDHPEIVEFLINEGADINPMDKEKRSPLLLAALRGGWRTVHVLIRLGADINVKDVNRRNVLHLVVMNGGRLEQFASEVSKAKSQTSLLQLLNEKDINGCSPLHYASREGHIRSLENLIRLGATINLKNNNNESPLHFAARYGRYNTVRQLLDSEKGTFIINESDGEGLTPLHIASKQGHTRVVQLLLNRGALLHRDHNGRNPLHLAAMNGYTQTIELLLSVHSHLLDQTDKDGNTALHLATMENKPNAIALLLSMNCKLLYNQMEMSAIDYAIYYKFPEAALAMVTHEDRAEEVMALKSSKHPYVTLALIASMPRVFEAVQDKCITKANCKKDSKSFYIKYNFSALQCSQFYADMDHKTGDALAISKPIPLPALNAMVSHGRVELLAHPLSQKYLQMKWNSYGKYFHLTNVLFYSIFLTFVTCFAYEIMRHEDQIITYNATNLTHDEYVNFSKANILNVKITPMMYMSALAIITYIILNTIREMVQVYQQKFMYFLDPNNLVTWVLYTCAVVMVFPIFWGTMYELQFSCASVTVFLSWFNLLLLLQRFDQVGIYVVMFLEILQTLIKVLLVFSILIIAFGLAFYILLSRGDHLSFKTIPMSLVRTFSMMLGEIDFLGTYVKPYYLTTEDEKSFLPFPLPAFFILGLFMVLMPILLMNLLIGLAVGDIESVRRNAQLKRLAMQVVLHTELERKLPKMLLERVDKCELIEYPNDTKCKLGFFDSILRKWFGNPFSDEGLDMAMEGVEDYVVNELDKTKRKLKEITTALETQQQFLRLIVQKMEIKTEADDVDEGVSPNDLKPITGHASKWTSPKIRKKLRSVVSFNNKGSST
The experiment in a line: Ca2+ influx fluorescence assay. It is filed as cell-based.

A word on the EC50: it is the concentration giving half of the maximal effect. A lower EC50 goes with a more potent agent. For `CC(C)=CCCC(C)CC=O` (stereo not shown) [citronellal], the EC50 stood at 69.7 µM.
